# In patent publication US20100291591A1, “NOVEL PLATING MEDIA” (priority 2007, published 2010):
# Tested on: S. aureus
# Experiment: Tolerance of S. aureus towards ELF phosphate in S. aureus plating media
# Format: cell-based
# Conditions: for Colony Growth: visual inspection relative to media without ELF phosphate
# Description: Varying concentrations of ELF® phosphate in S. aureus plating media were used to determine the effect on growth and sensitivity of S. aureus to ELF® phosphate. Colony growth in the presence of ELF® phosphate was compared to colony growth in media without ELF® phosphate.
smiles,measurement,setting,value
"O=P(O)(O)O.O=c1[nH]c(-c2cc(Cl)ccc2O)nc2ccc(Cl)cc12 [ELF ® Phosphate, 6-chloro-2-(5-chloro-2-hydroxyphenyl)-quinazolin-4(3H)-one phosphate]",Colony Growth,ELF phosphate 0.080 g/L,Normal
same,Colony Growth,ELF phosphate 0.200 g/L,Normal
same,Colony Growth,ELF phosphate 0.400 g/L,Normal
same,Colony Growth,ELF phosphate 0.600 g/L,Normal
same,effect of concentration on growth,"S. aureus plating media, 0.080-0.600 g/L",no effect on growth
same,inhibition of the growth of S. aureus strains,concentrations of 500 mg/L and higher,do not significantly inhibit
